# In patent publication US20080027027A1, “Lactosucrose High Content Saccharide, Its Preparation and Uses” (priority 2004, published 2008):
# Like-named read-outs stand apart in the source and are kept apart here.
# Assays:
# [1] = Hygroscopicity of solid lactosucrose products under high temperature and humidity; format: physicochemical
# Text: While, it has been known that a powdery saccharide, comprising lactosucrose with a lowered hygroscopicity and relatively high stability, can be obtained by elevating the purity of lactosucrose (see Japanese Patent Kokai No. 281,795/92).
# To solve the above objects, the present inventors studied on a process for producing lactosucrose, using β-fructofuranosidase, from the viewpoints of the origin of β-fructofuranosidase and reaction condition as well as the combination with sucrose-unassimilable yeast. It has been thought that the lactosucrose content in the reaction mixture reaches maximum about 65%, on a saccharide composition basis, even in the case of using β-fructofuranosidase and invertase-deficient yeast.
# According to conventional methods, lactosucrose high content fraction, obtained by the method in Example 4, was filtrated, deionized using ion-exchange resin, decolored using activated charcoal, and concentrated under a reduced pressure to give a moisture content of about 25% (w/w). The resulting concentrate was placed in a crystallizer, admixed with 1% (w/w) of seed crystal and gradually cooled to about 30° C. in 24 hours. The resulting massecuite was centrifuged and crystalline lactosucrose pentahydrate was obtained in a yield of about 40%. […]
# [2] = crystal obtained from 90% (v/v) ethanol solution, Avigad 1957; cited from earlier work
hygroscopicity ([1]; 27° C. and a relative humidity of 75%),hygroscopicity ([1]; condition of high-temperature and humidity in summer),Structure (SMILES),hygroscopicity [2]
low hygroscopicity,no substantial hygroscopicity,"OC[C@H]1O[C@@H](O[C@H]2[C@H](O)[C@@H](O)[C@@H](O[C@]3(CO)O[C@H](CO)[C@@H](O)[C@@H]3O)O[C@@H]2CO)[C@H](O)[C@@H](O)[C@H]1O [crystalline lactosucrose, β-D-galactosyl-(1,4)-α-D-glucosyl-(1,2)-β-D-fructoside]",–
–,–,O.O.O.O.O.OCC1OC(OC2C(CO)OC(OC3(CO)OC(CO)C(O)C3O)C(O)C2O)C(O)C(O)C1O (stereo not drawn) [crystalline lactosucrose pentahydrate],strong hygroscopicity
